Results taken from US10988459B2 (priority 2015, dated 2021).

What follows are molecules tested against human RIP1 kinase domain (2-375) (Homo sapiens (Human), UniProt Q13546) (assay: biochemical). Conditions: Table 1; apparent Ki (Morrison tight-binding fit); 50 nM RIP1 kinase domain, 50 uM ATP, 2 hours incubation; read-out: RIP1 Ki.
Assay type: biochemical
Procedure, shortened: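 Ki^app comes from Morrison tight-binding fits of fractional activity versus compound concentration. Activity was read as ADP production, via tracer displacement lowering fluorescence polarization (633 nm laser). Conditions: 2 h, 50 nM insect-cell-expressed enzyme, 50 uM ATP, 30 mM MgCl2, 1 mM DTT, 0.5% DMSO, pH 7.5 Hepes.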

Sequence of human RIP1 kinase domain (2-375) (Q13546 2-375): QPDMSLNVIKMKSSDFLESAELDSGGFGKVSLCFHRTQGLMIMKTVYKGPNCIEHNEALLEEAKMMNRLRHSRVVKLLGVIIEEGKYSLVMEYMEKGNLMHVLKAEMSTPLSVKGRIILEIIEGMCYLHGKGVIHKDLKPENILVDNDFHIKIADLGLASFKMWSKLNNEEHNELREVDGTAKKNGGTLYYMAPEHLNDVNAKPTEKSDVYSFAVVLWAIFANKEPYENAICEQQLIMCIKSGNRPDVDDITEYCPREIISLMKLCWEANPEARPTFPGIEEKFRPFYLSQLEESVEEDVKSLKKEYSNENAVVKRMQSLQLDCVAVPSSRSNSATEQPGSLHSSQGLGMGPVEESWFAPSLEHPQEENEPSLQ

Compared with `CC(C)(C)C1CCc2[nH]nc(C(=O)N[C@H]3CCc4cc(Cl)ccc4NC3=O)c2C1` (stereo partly drawn) [Example 47, 5-(tert-butyl)-N-((S)-7-chloro-2-oxo-2,3,4,5-tetrahydro-1H-benzo[b]azepin-3-yl)-4,5,6,7-tetrahydro-1H-indazole-3-carboxamide], `CN1C(=O)C(NC(=O)c2nnc(Cc3ccccc3)[nH]2)CCn2nc(C(F)(F)F)cc21` (stereo not drawn) [Example 30, 5-benzyl-N-[4-methyl-5-oxo-2-(trifluoromethyl)-7,8-dihydro-6H-pyrazolo[1,5-a][1,3]diazepin-6-yl]-4H-1,2,4-triazole-3-carboxamide] is 1.7-fold lower in Ki: 350 nM for the first, 208 nM for the second. The second binds more tightly here.

Same assay, conditions: human RIP1 kinase domain (2-375), 50 uM ATP, 2 hours incubation, Transcreener ADP assay; read-out: RIP1 Ki

`CN1C(=O)[C@@H](NC(=O)c2nnn3c2CC2(CCCC2)C3)COc2ccccc21` [Example 118, (S)—N-(5-methyl-4-oxo-2,3,4,5-tetrahydrobenzo[b][1,4]oxazepin-3-yl)-4′H,6′H-spiro[cyclopentane-1,5′-pyrrolo[1,2-c][1,2,3]triazole]-3′-carboxamide] was tested, and the Ki was 50.4 nM.

Same assay, conditions: human RIP1 kinase domain (2-375), Transcreener ADP assay, 50 uM ATP, 2 hours incubation; read-out: RIP1 Ki

Going from `CN1C(=O)[C@@H](NC(=O)c2cc3c(cn2)COC32CCOCC2)COc2ccccc21` [Example 299, (S)—N-(5-methyl-4-oxo-2,3,4,5-tetrahydrobenzo[b][1,4]oxazepin-3-yl)-2′,3′,5′,6′-tetrahydro-3H-spiro[furo[3,4-c]pyridine-1,4′-pyran]-6-carboxamide] to `CN1C(=O)[C@@H](NC(=O)c2cc3c(cn2)COC3(C)CC(F)(F)F)COc2ccccc21` (stereo partly drawn) [Example 229, 1-methyl-N—((S)-5-methyl-4-oxo-2,3,4,5-tetrahydrobenzo[b][1,4]oxazepin-3-yl)-1-(2,2,2-trifluoroethyl)-1,3-dihydrofuro[3,4-c]pyridine-6-carboxamide], the Ki falls from 74 nM to 44.6 nM (1.7-fold).

Compared with `CCCC1(C)OCc2cnc(C(=O)N[C@H]3COc4ccccc4N(C)C3=O)nc21` (stereo partly drawn) [Example 309, 7-methyl-N—((S)-5-methyl-4-oxo-2,3,4,5-tetrahydrobenzo[b][1,4]oxazepin-3-yl)-7-propyl-5,7-dihydrofuro[3,4-d]pyrimidine-2-carboxamide], `CN1C(=O)[C@@H](NC(=O)c2n[nH]c3ncc(C(F)(F)F)cc23)COc2ccccc21` [Example 279, (S)—N-(5-methyl-4-oxo-2,3,4,5-tetrahydrobenzo[b][1,4]oxazepin-3-yl)-5-(trifluoromethyl)-1H-pyrazolo[3,4-b]pyridine-3-carboxamide] is 1.9-fold higher in Ki: 52.8 nM for the first, 98.1 nM for the second.

First: CN1C(=O)[C@H](NC(=O)c2ncn(Cc3ccc(F)cc3)n2)CCn2nc([C@H]3CC3(F)F)cc21 [Example 318, N—((R)-2-((R)-2,2-difluorocyclopropyl)-4-methyl-5-oxo-5,6,7,8-tetrahydro-4H-pyrazolo[1,5-a][1,3]diazepin-6-yl)-1-(4-fluorobenzyl)-1H-1,2,4-triazole-3-carboxamide]
Second: CN1C(=O)[C@@H](NC(=O)c2ncn(Cc3ccc(F)cc3F)n2)CCn2nc([C@H]3CC3(F)F)cc21 [Example 315, 1-(2,4-difluorobenzyl)-N—((S)-2-((R)-2,2-difluorocyclopropyl)-4-methyl-5-oxo-5,6,7,8-tetrahydro-4H-pyrazolo[1,5-a][1,3]diazepin-6-yl)-1H-1,2,4-triazole-3-carboxamide]
The Ki of the first is 380-fold lower: 25.3 nM for the first, 9500 nM for the second. The first binds more tightly here.

Compared with `CN1C(=O)C(NC(=O)c2n[nH]c(Cc3ccccc3)n2)CCn2cncc21` (stereo not drawn) [Example 293, 5-benzyl-N-(1-methyl-2-oxo-2,3,4,5-tetrahydro-1H-imidazo[1,5-a][1,3]diazepin-3-yl)-1H-1,2,4-triazole-3-carboxamide], `CN1C(=O)[C@@H](NC(=O)c2ncn(Cc3ccccc3)n2)CCn2cncc21` [Example 297, (S)-1-benzyl-N-(1-methyl-2-oxo-2,3,4,5-tetrahydro-1H-imidazo[1,5-a][1,3]diazepin-3-yl)-1H-1,2,4-triazole-3-carboxamide] is 3.5-fold lower in Ki: 72.8 nM for the first, 20.8 nM for the second. The second binds more tightly here.

Same assay, conditions: read-out: RIP1 Ki

`CN1C(=O)[C@@H](NC(=O)c2n[nH]c3c2C[C@H](C(C)(C)C)CC3)COc2ccccc21` [Example 61, (R)-5-(tert-butyl)-N-((S)-5-methyl-4-oxo-2,3,4,5-tetrahydrobenzo[b][1,4]oxazepin-3-yl)-4,5,6,7-tetrahydro-1H-indazole-3-carboxamide] showed a Ki of 48 nM.

Same assay, conditions: scale-up batches (Examples A-C); apparent Ki (Morrison tight-binding fit); 50 nM RIP1 kinase domain, 50 uM ATP; read-out: Ki

Work on `Cc1cc2n(n1)CC[C@H](NC(=O)c1ncn(Cc3ccccc3)n1)C(=O)N2C` [Example C, (S)-1-benzyl-N-(2,4-dimethyl-5-oxo-5,6,7,8-tetrahydro-4H-pyrazolo[1,5-a][1,3]diazepin-6-yl)-1H-1,2,4-triazole-3-carboxamide] yielded a Ki of 22 nM.

Same assay, conditions: tight-binding apparent inhibition constant; human RIP1 kinase domain (2-375) 50 nM, 50 uM ATP, 2 hours; read-out: Ki

Compared with `CC[C@@]1(C)OCc2cnc(C(=O)N[C@H]3COc4ccccc4N(C)C3=O)nc21` (mixture of isomers) [Example 682, (7R)-7-ethyl-7-methyl-N-[rac-(3S)-5-methyl-4-oxo-2,3-dihydro-1,5-benzoxazepin-3-yl]-5H-furo[3,4-d]pyrimidine-2-carboxamide], `CN1C(=O)[C@@H](NC(=O)c2ncc3cnn(C(F)(F)F)c3n2)COc2ccccc21` [Example 360, N-[(3S)-5-methyl-4-oxo-2,3-dihydro-1,5-benzoxazepin-3-yl]-1-(trifluoromethyl)pyrazolo[3,4-d]pyrimidine-6-carboxamide] is 7.1-fold lower in Ki: 73.8 nM for the first, 10.4 nM for the second. The second binds more tightly here.

First: CN1C(=O)[C@H](NC(=O)c2ncn(Cc3ccc(Cl)cc3)n2)CCn2nc(C3CC3)cc21 (single isomer, unassigned) [Example 671]
Second: Cc1ncccc1Cn1cnc(C(=O)N[C@H]2CCn3nc(C4CC4)cc3N(C)C2=O)n1 [Example 665]
The Ki of the first is 11-fold higher: 8200 nM for the first, 740 nM for the second.

Compared with `CN1C(=O)[C@@H](NC(=O)c2nc3n(n2)[C@H](c2c(F)cccc2F)CCC3)CCn2nccc21` (racemic) [Example 400, (S)-5-(2,6-difluorophenyl)-N—((S)-4-methyl-5-oxo-5,6,7,8-tetrahydro-4H-pyrazolo[1,5-a][1,3]diazepin-6-yl)-5,6,7,8-tetrahydro-[1,2,4]triazolo[1,5-a]pyridine-2-carboxamide], `CN1C(=O)[C@@H](NC(=O)c2nc3n(n2)C(c2ccccc2F)CCC3)CCn2nccc21` (stereo partly drawn) [Example 387, 5-(2-fluorophenyl)-N—((S)-4-methyl-5-oxo-5,6,7,8-tetrahydro-4H-pyrazolo[1,5-a][1,3]diazepin-6-yl)-5,6,7,8-tetrahydro-[1,2,4]triazolo[1,5-a]pyridine-2-carboxamide] is 8.3-fold lower in Ki: 834 nM for the first, 100 nM for the second.

Compared with `CCCC1(C)OCc2cnc(C(=O)N[C@H]3CCn4nccc4N(C)C3=O)nc21` (stereo partly drawn) [Example 566, 7-methyl-7-propyl-N-[(6S)-4-methyl-5-oxo-7,8-dihydro-6H-pyrazolo[1,5-a][1,3]diazepin-6-yl]-5H-furo[3,4-d]pyrimidine-2-carboxamide], `CC(C)[C@@H]1CCc2nc(C(=O)N[C@H]3CCn4nccc4N(C)C3=O)nn21` (single isomer, unassigned) [Example 353] is 9.6-fold lower in Ki: 480 nM for the first, 49.8 nM for the second. The second binds more tightly here.

Going from `CN1C(=O)[C@H](NC(=O)c2ncn(Cc3cc(F)ccc3F)n2)CCn2cncc21` [Example 507, 1-[(2,5-difluorophenyl)methyl]-N-[(3R)-1-methyl-2-oxo-4,5-dihydro-3H-imidazo[1,5-a][1,3]diazepin-3-yl]-1,2,4-triazole-3-carboxamide] to `Cc1cnc2n1CCC(NC(=O)c1ncn(Cc3ccccc3)n1)C(=O)N2C` (stereo not drawn) [Example 546, 1-benzyl-N-(3,9-dimethyl-8-oxo-6,7-dihydro-5H-imidazo[1,2-a][1,3]diazepin-7-yl)-1,2,4-triazole-3-carboxamide], the Ki rises from 26 nM to 220 nM (8.5-fold). The first binds more tightly here.

First: O=C(N[C@H]1CCc2cc(F)cc(F)c2NC1=O)c1nc2n(n1)CCO[C@H]2c1ccccc1 [Example 638, (8S)-8-phenyl-N-[(3S)-7,9-difluoro-2-oxo-1,3,4,5-tetrahydro-1-benzazepin-3-yl]-6,8-dihydro-5H-[1,2,4]triazolo[5,1-c][1,4]oxazine-2-carboxamide]
Second: O=C(N[C@H]1COc2cc(F)cc(F)c2NC1=O)c1ncc2c(n1)C1(CCCC1)OC2 [Example 481, N-[(3S)-6,8-difluoro-4-oxo-3,5-dihydro-2H-1,5-benzoxazepin-3-yl]spiro[5H-furo[3,4-d]pyrimidine-7,1′-cyclopentane]-2-carboxamide]
The Ki of the first is 7.8-fold higher: 38 nM for the first, 4.9 nM for the second.

Compared with `CN1C(=O)[C@@H](NC(=O)c2nc3n(n2)C(c2cc(F)ccc2F)CCC3)CCn2nccc21` (stereo partly drawn) [Example 388, 5-(2,5-difluorophenyl)-N—((S)-4-methyl-5-oxo-5,6,7,8-tetrahydro-4H-pyrazolo[1,5-a][1,3]diazepin-6-yl)-5,6,7,8-tetrahydro-[1,2,4]triazolo[1,5-a]pyridine-2-carboxamide], `CN1C(=O)[C@@H](NC(=O)c2nc3n(n2)[C@@H](c2cnn(C)c2)CCC3)CCn2nccc21` (single isomer, unassigned) [Example 404] is 2.6-fold higher in Ki: 124 nM for the first, 318 nM for the second.

Going from `Cc1nc(C(=O)N[C@H]2CCn3nccc3N(C)C2=O)nn1Cc1ccccc1` [Example 462, (S)-1-Benzyl-5-methyl-N-(4-methyl-5-oxo-5,6,7,8-tetrahydro-4H-pyrazolo[1,5-a][1,3]diazepin-6-yl)-1H-1,2,4-triazole-3-carboxamide] to `CN1C(=O)C(NC(=O)c2ncn(Cc3ccccc3)n2)CCn2nc(CN3CC(F)C3)cc21` (single isomer, unassigned) [Example 450, 1-benzyl-N-(2-((3-fluoroazetidin-1-yl)methyl)-4-methyl-5-oxo-5,6,7,8-tetrahydro-4H-pyrazolo[1,5-a][1,3]diazepin-6-yl)-1H-1,2,4-triazole-3-carboxamide], the Ki rises from 33 nM to 355 nM (11-fold).

Work on `CN1C(=O)[C@@H](NC(=O)c2ncc3cnn(-c4ccccn4)c3n2)COc2ccccc21` [Example 631, 1-(2-pyridyl)-N-[(3S)-5-methyl-4-oxo-2,3-dihydro-1,5-benzoxazepin-3-yl]pyrazolo[3,4-d]pyrimidine-6-carboxamide] yielded a Ki of 160 nM.
